{
  "source": "patent US20050239856A1",
  "about": "“Method for prophylaxis and treatment of diabetic complications with 4{alpha-hydroxy-2-methyl-5-(1-imidazolyl)benzyl}-3,5-dimethylbenzoic acid and derivatives” (priority 1995, published 2005)",
  "key": {"[1]": {"tested_on": "tail nerve of streptozotocin diabetic Sprague-Dawley rats", "assay": "Tail nerve conduction velocity in streptozotocin-induced diabetic rats (Experimental Example 1)", "type": "in vivo, rat", "conditions": "STZ diabetic rats; for tail nerve conduction velocity 7 wks after administration / tail nerve conduction velocity 5 wks after administration / tail nerve conduction velocity 4 wks after administration: mean ± standard error; for effect on tail nerve conduction velocity decreased by diabetes (in words): dose-dependent, oral once a day", "protocol": "(§1) Diabetes was induced by intravenous administration of streptozotocin (65 mg/kg) to 6-week-old male Sprague-Dawley rats. Starting from 2-4 weeks after the onset of diabetes, a 0.5% hydroxypropylmethylcellulose suspension containing the compound of the present invention was orally administered once a day. At 4-7 weeks from the administration, tail nerve conduction velocity was measured with an induction potential test device (Neuropack 2, manufactured by Nihon Kohden) according to a modification of the method of Miyoshi (Fukuoka Medical Journal, vol. 62, pp. 588-603 (1971)). To be specific, subcutaneous temperature at the tail was maintained at 37° C. and the tail nerve was percutaneously stimulated electrically at 2 stimulation points (interval 6 cm). The distance between stimulation points was divided by the difference between latencies in electromyogram induced to give nerve conduction velocity. As to the test group in Table 1, blood glucose was measured at 6 weeks after administration. At 7 weeks after administration, urinary excretion of TXB2, which is a stable metabolite of TXA2, was measured."}, "[2]": {"assay": "Blood glucose in streptozotocin-induced diabetic rats (Experimental Example 1)", "type": "in vivo, rat", "conditions": "STZ diabetic rats; for blood glucose: 6 weeks after administration, mean ± standard error", "protocol": "as §1"}, "[3]": {"tested_on": "TXA2 biosynthesis (urinary TXB2)", "assay": "Urinary excretion of TXB2, stable metabolite of TXA2, in streptozotocin-induced diabetic rats (Experimental Example 1)", "type": "in vivo, rat", "conditions": "STZ diabetic rats; for urinary TXB2 excretion: 7 weeks after administration, mean ± standard error", "protocol": "as §1"}, "[4]": {"tested_on": "tail nerve of streptozotocin diabetic Sprague-Dawley rats", "assay": "Tail nerve conduction velocity in rats, administration from 16 weeks after onset of streptozotocin diabetes (Experimental Example 3)", "type": "in vivo, rat", "conditions": "for tail nerve conduction velocity 5 wks after administration: started 16 weeks after onset of STZ diabetes; for tail nerve conduction velocity 5 wks after administration / tail nerve conduction velocity Before administration: mean ± standard error; for tail nerve conduction velocity Before administration: 16 weeks after onset of STZ diabetes", "protocol": "Diabetes was induced by intravenous administration of streptozotocin (65 mg/kg) to 6-week-old male Sprague-Dawley rats. Starting from 16 weeks after the onset of diabetes, a 0.5% hydroxypropylmethylcellulose suspension containing compound A-1 was orally administered once a day. At 5 weeks from the administration, tail nerve conduction velocity was measured with arm induction potential test device (Neuropack 2, manufactured by Nihon Kohden) according to a modification of the method of Miyoshi (Fukuoka Medical Journal, vol. 62, pp. 588-603 (1971)). To be specific, subcutaneous temperature at the tail was maintained at 37° C. and the tail nerve was percutaneously stimulated electrically at 2 stimulation points (interval 6 cm). The distance between the stimulation points was divided by the difference between latencies in induced electromyogram to give nerve conduction velocity."}, "[5]": {"tested_on": "kidney glomerulus of streptozotocin diabetic Sprague-Dawley rats", "assay": "Degree of glomerular disorder in streptozotocin-induced diabetic rats (Experimental Example 4)", "type": "in vivo, rat", "conditions": "STZ diabetic rats; for glomerular disorder score: total score of 50 glomeruli (0-4 each), mean ± standard error", "protocol": "Diabetes was induced by intravenous administration of streptozotocin (65 mg/kg) to 5-week-old male Sprague-Dawley rats. Starting from 9 weeks after the onset of diabetes, a 0.5% hydroxypropylmethylcellulose suspension containing compound A-1 was orally administered once a day. At 9 weeks from the administration, kidney was removed to determine the degree of glomerular disorder and fixed in a 10% neutral-buffered formalin solution. Tissue sections were stained with hematoxylin/eosin. Glomerulus was evaluated according to the degree of obstruction in 5 stages (0: no obstruction, 1: up to 25% obstruction, 2: up to 50% obstruction, 3: up to 75% obstruction, 4: up to 100% obstruction). Fifty glomeruli were evaluated per sample and the total score was used as an index of the degree of glomerular disorder. This operation was done under a single blind condition."}, "[6]": {"tested_on": "sciatic nerve of spontaneously diabetic mice (db/db)", "assay": "Sciatic nerve conduction velocity in spontaneously diabetic mice (db/db) (Experimental Example 2)", "type": "in vivo, mouse", "conditions": "for sciatic nerve conduction velocity 4 wks after administration / sciatic nerve conduction velocity 5 wks after administration: db/db mice, mean ± standard error; for effect on sciatic nerve conduction velocity (in words): spontaneous diabetic mice, oral once a day", "protocol": "A 0.5% hydroxypropylmethylcellulose suspension containing the compound of the present invention was orally administered to 9-week-old male spontaneously diabetic mice (db/db) once a day. At 4-5 weeks from the administration, sciatic nerve conduction velocity was measured with an induction potential test device (Neuropack 2, manufactured by Nihon Kohden) according to a modification of the method of Yasuda (Diabetes, 38, p. 832-838 (1989)). To be specific, rectal temperature was maintained at 37° C. and two points of sciatic notch and ankle were percutaneously stimulated electrically. The distance between the stimulation points was divided by the difference between latencies in induced electromyogram to give nerve conduction velocity."}, "[7]": {"tested_on": "biosynthesis of TXA2", "assay": "Biosynthesis of TXA2 in rats with diabetes (sodium ozagrel)", "type": "in vivo, rat"}, "[8]": {"tested_on": "tail nerve of rats with diabetes", "assay": "Tail nerve conduction velocity in rats with diabetes (sodium ozagrel)", "type": "in vivo, rat"}},
  "data": [
    {"smiles": "Cc1ccc(-n2ccnc2)cc1C(O)c1c(C)cc(C(=O)[O-])cc1C.O.O.[Na+]", "note": "(stereo not drawn) [Compound A-1, sodium 4-[α-hydroxy-2-methyl-5-(1-imidazolyl)benzyl]-3,5-dimethylbenzoate dihydrate]", "values": [
      {"measurement": "tail nerve conduction velocity 7 wks after administration", "setting": "[1]; 0.03 mg/kg/day oral once a day", "result": "42.0 ± 0.5", "unit": "m/sec"},
      {"measurement": "tail nerve conduction velocity 7 wks after administration", "setting": "[1]; 0.1 mg/kg/day oral once a day", "result": "43.4 ± 0.4", "unit": "m/sec"},
      {"measurement": "tail nerve conduction velocity 7 wks after administration", "setting": "[1]; 0.3 mg/kg/day oral once a day", "result": "43.7 ± 0.3", "unit": "m/sec"},
      {"measurement": "tail nerve conduction velocity 7 wks after administration", "setting": "[1]; 1.0 mg/kg/day oral once a day", "result": "44.8 ± 0.4", "unit": "m/sec"},
      {"measurement": "effect on tail nerve conduction velocity decreased by diabetes (in words)", "setting": "[1]", "result": "increased tail nerve conduction velocity"},
      {"measurement": "blood glucose", "setting": "[2]; 0.03 mg/kg/day oral once a day", "result": "718.3 ± 50.7", "unit": "mg/dL"},
      {"measurement": "blood glucose", "setting": "[2]; 0.1 mg/kg/day oral once a day", "result": "772.1 ± 32.4", "unit": "mg/dL"},
      {"measurement": "blood glucose", "setting": "[2]; 0.3 mg/kg/day oral once a day", "result": "791.9 ± 65.5", "unit": "mg/dL"},
      {"measurement": "blood glucose", "setting": "[2]; 1.0 mg/kg/day oral once a day", "result": "718.4 ± 64.1", "unit": "mg/dL"},
      {"measurement": "effect on blood glucose (in words)", "setting": "[2]; 0.03-1.0 mg/kg/day", "result": "without affecting the blood glucose"},
      {"measurement": "urinary TXB2 excretion", "setting": "[3]; 0.03 mg/kg/day oral once a day", "result": "10.6 ± 1.4", "unit": "ng/day/100 g body weight"},
      {"measurement": "urinary TXB2 excretion", "setting": "[3]; 0.1 mg/kg/day oral once a day", "result": "6.9 ± 0.8", "unit": "ng/day/100 g body weight"},
      {"measurement": "urinary TXB2 excretion", "setting": "[3]; 0.3 mg/kg/day oral once a day", "result": "5.1 ± 0.5", "unit": "ng/day/100 g body weight"},
      {"measurement": "urinary TXB2 excretion", "setting": "[3]; 1.0 mg/kg/day oral once a day", "result": "3.4 ± 0.3", "unit": "ng/day/100 g body weight"},
      {"measurement": "effect on urinary TXB2 excretion increased by diabetes (in words)", "setting": "[3]; dose-dependent, 0.03-1.0 mg/kg/day", "result": "decreased urinary TXB2 excretion"},
      {"measurement": "tail nerve conduction velocity 5 wks after administration", "setting": "[4]; 0.3 mg/kg/day oral once a day", "result": "48.3 ± 0.6", "unit": "m/sec"},
      {"measurement": "tail nerve conduction velocity 5 wks after administration", "setting": "[4]; 1 mg/kg/day oral once a day", "result": "49.4 ± 0.4", "unit": "m/sec"},
      {"measurement": "tail nerve conduction velocity 5 wks after administration", "setting": "[4]; 3 mg/kg/day oral once a day", "result": "50.2 ± 0.5", "unit": "m/sec"},
      {"measurement": "effect on tail nerve conduction velocity lowered by the progression of diabetes (in words)", "setting": "[4]; administration from 16 weeks after onset of diabetes, dose-dependent", "result": "increased tail nerve conduction velocity"},
      {"measurement": "tail nerve conduction velocity Before administration", "setting": "[4]; baseline of the 0.3 mg/kg/day group", "result": "46.2 ± 0.5", "unit": "m/sec"},
      {"measurement": "tail nerve conduction velocity Before administration", "setting": "[4]; baseline of the 1 mg/kg/day group", "result": "46.1 ± 0.4", "unit": "m/sec"},
      {"measurement": "tail nerve conduction velocity Before administration", "setting": "[4]; baseline of the 3 mg/kg/day group", "result": "46.0 ± 0.3", "unit": "m/sec"},
      {"measurement": "glomerular disorder score", "setting": "[5]; 0.3 mg/kg/day oral once a day for 9 weeks", "result": "90.8 ± 10.0"},
      {"measurement": "glomerular disorder score", "setting": "[5]; 1 mg/kg/day oral once a day for 9 weeks", "result": "65.7 ± 12.0"},
      {"measurement": "glomerular disorder score", "setting": "[5]; 10 mg/kg/day oral once a day for 9 weeks", "result": "55.4 ± 9.2"},
      {"measurement": "effect on glomerular disorder due to diabetes (in words)", "setting": "[5]; dose-dependent", "result": "suppressed glomerular disorder"}
    ]},
    {"smiles": "Cc1ccc(-n2ccnc2)cc1[C@H](O)c1c(C)cc(C(=O)[O-])cc1C.O.[Na+]", "note": "[Compound A-2, sodium (S)-(−)-4[α-hydroxy-2-methyl-5-(1-imidazolyl)benzyl]-3,5-dimethylbenzoate 2/3 hydrate]", "values": [
      {"measurement": "tail nerve conduction velocity 5 wks after administration", "setting": "[1]; 0.03 mg/kg/day oral once a day", "result": "40.7 ± 0.5", "unit": "m/sec"},
      {"measurement": "tail nerve conduction velocity 5 wks after administration", "setting": "[1]; 0.1 mg/kg/day oral once a day", "result": "42.6 ± 0.4", "unit": "m/sec"},
      {"measurement": "tail nerve conduction velocity 5 wks after administration", "setting": "[1]; 0.3 mg/kg/day oral once a day", "result": "43.0 ± 0.3", "unit": "m/sec"},
      {"measurement": "tail nerve conduction velocity 5 wks after administration", "setting": "[1]; 1 mg/kg/day oral once a day", "result": "42.6 ± 0.5", "unit": "m/sec"},
      {"measurement": "effect on tail nerve conduction velocity decreased by diabetes (in words)", "setting": "[1]", "result": "suppressed decrease in tail nerve conduction velocity"},
      {"measurement": "sciatic nerve conduction velocity 4 wks after administration", "setting": "[6]; 0.05 mg/kg/day oral once a day", "result": "46.6 ± 1.5", "unit": "m/sec"},
      {"measurement": "sciatic nerve conduction velocity 4 wks after administration", "setting": "[6]; 0.5 mg/kg/day oral once a day", "result": "51.9 ± 1.2", "unit": "m/sec"},
      {"measurement": "sciatic nerve conduction velocity 4 wks after administration", "setting": "[6]; 5 mg/kg/day oral once a day", "result": "51.7 ± 1.4", "unit": "m/sec"},
      {"measurement": "effect on sciatic nerve conduction velocity (in words)", "setting": "[6]", "result": "increased sciatic nerve conduction velocity"}
    ]},
    {"smiles": "Cc1ccc(-n2ccnc2)cc1[C@H](O)c1c(C)cc(C(=O)O)cc1C", "note": "[Compound A-4, (S)-(−)-4-[α-hydroxy-2-methyl-5-(1-imidazolyl)benzyl]-3,5-dimethylbenzoic acid]", "values": [
      {"measurement": "tail nerve conduction velocity 4 wks after administration", "setting": "[1]; 0.3 mg/kg/day oral once a day", "result": "40.9 ± 0.5", "unit": "m/sec"},
      {"measurement": "tail nerve conduction velocity 4 wks after administration", "setting": "[1]; 1 mg/kg/day oral once a day", "result": "41.3 ± 0.4", "unit": "m/sec"},
      {"measurement": "tail nerve conduction velocity 4 wks after administration", "setting": "[1]; 3 mg/kg/day oral once a day", "result": "41.7 ± 0.5", "unit": "m/sec"},
      {"measurement": "effect on tail nerve conduction velocity decreased by diabetes (in words)", "setting": "[1]", "result": "suppressed decrease in tail nerve conduction velocity"},
      {"measurement": "sciatic nerve conduction velocity 5 wks after administration", "setting": "[6]; 0.3 mg/kg/day oral once a day", "result": "45.2 ± 1.2", "unit": "m/sec"},
      {"measurement": "sciatic nerve conduction velocity 5 wks after administration", "setting": "[6]; 1 mg/kg/day oral once a day", "result": "45.9 ± 0.7", "unit": "m/sec"},
      {"measurement": "sciatic nerve conduction velocity 5 wks after administration", "setting": "[6]; 3 mg/kg/day oral once a day", "result": "45.3 ± 0.8", "unit": "m/sec"},
      {"measurement": "effect on sciatic nerve conduction velocity (in words)", "setting": "[6]", "result": "increased sciatic nerve conduction velocity"}
    ]},
    {"smiles": "O=C([O-])/C=C/c1ccc(Cn2ccnc2)cc1.[Na+]", "note": "[sodium ozagrel, sodium (E)-p-(imidazol-1-ylmethyl)cinnamate]", "values": [
      {"measurement": "effect on promotion of biosynthesis of TXA2 (in words)", "setting": "[7]", "result": "suppresses promotion of biosynthesis of TXA2"},
      {"measurement": "effect on decreased tail nerve conduction velocity (in words)", "setting": "[8]", "result": "does not improve decreased tail nerve conduction velocity"}
    ]}
  ]
}
